Assay results reported in patent US20070161628A1, “Phosphodiesterase inhibitors” (GREENPHARMA, priority 2004, published 2007).

Columns and labels:
[1] = biological target: T1, human type 2 phosphodiesterase (source: U-937 cells) (Homo sapiens, UniProt O00408); experiment: Inhibition of PDE2; assay type: biochemical; settings: substrate 1 μM, 30 minutes at 30° C.
T1 construct: human type 2 phosphodiesterase (source: U-937 cells); endogenous in cells; host or cells: U-937 cells
Description: This novel family of compounds was tested as inhibitor of human type 2 phosphodiesterase (source: U-937 cells) by following the process described by Torphy, T. J., Zhou, H. L. and Cieslinski, L. B. (J. Pharmacol. Exp. Ther., 1992, 263, 1195-1205). […] A quantitative measurement of the hydrolysis product [^3H]-5′-AMP was determined by scintillation.

PDE1 (bovine) = experiment: Selectivity towards PDE1; assay type: biochemical; settings: substrate [3H]cAMP+cAMP 1 μM, 30 minutes at 30° C.
Description: (§1) D., JACKMAN S. A. and WILKE R. (Brit. J. Pharmacol. 1989, 97, 889-897); (ii, PDE3 and PDE5) Weishaar, R. E., Burrows, S. D., Kobylarz, D. C., Quade, M. M. and Evans, D. B. (Biochem. Pharmacol., 1986, 35, 787-800); (iii, PDE6) Ballard, A. S., Gingell, C. J., Tang, K., Turner, L. A., PRICE, M. E. (J. Urol, 1998, 159, 2164-2171). […] In the case of PDE 5 and 6, the substrate used is ([^3H]cGMP+cGMP) at a concentration of 1 μM for PDE5 and 2 μM for PDE6. A quantitative measurement of the hydrolysis products [^3H]-5′-AMP and [^3H]-5′-GMP was determined by scintillation.

[2] = system: TNF-alpha in peripheral blood mononuclear cells (PBMC); experiment: Anti-inflammatory properties: TNF-alpha in LPS-activated PBMC; assay type: cell-based; settings: LPS 1 μg/ml, 24 hours, EIA
Description: The compounds according to the invention were evaluated for their anti-inflammatory properties on peripheral blood mononuclear cells (PBMC). More particularly, the cells were incubated for 24 hours in the presence of the test molecule, after activation with lipopolysaccharide (LPS) (1 μg/ml) according to the protocol described by Schindler, R., Mancilla, J., Endres, S., Ghorbani, R., Clark, S. C. and Dinarello, C. A. (Blood, 1990, 75, 40-47). After incubation, the concentrations of TNF-alpha were measured in the culture supernatants by the EIA method.

trabecular bone = experiment: Microarchitecture and study of bone markers in mice; assay type: in vivo, C57BL6 mice; settings: 5 mg/kg per day, 5 days per week, 4 weeks, subcutaneous; for effect on the bone quantity and microarchitecture (BV/TV, Tb.N): distal metaphysis of the femur, microQCT
Description: The object is to test the effect of the components described above on the microarchitecture of the trabecular bone. […] Results on the Bone Microarchitecture • No significant difference between the groups at the start of the treatment. No significant difference between the control (base) group and the Sham group. All the significant differences are represented by an *, *p<0.05; **p<0.01 • Several parameters (10) are recorded and analysed, such as: • BV/TV: represents the bone volume of the trabecular bone to the tissue volume, • Tb.N: trabecular number. The trabecular bone volume (BV/TV, %) and the trabecular number (Tb.N) are calculated via the “Mean Intercept Length (MIL)” method. The trabecular thickness (Tb.Th) and the trabecular space (Tb.Sp) are calculated via the method described by Hildebrand & Ruegsegger (Journal of Microscopy. 185:67-75, 1997). • BV/TV: FIG. 5 • Tb.N: FIG. 6 CONCLUSION

PDE3 (human) = experiment: Selectivity towards PDE3; assay type: biochemical; settings: PDE1, 3, 5 and 6
Description: as §1

[3] = system: human type 4 phosphodiesterase (source: U-937 cells); experiment: Inhibition of PDE4
Description: A quantitative measurement of the hydrolysis product [^3H]-5′-AMP was determined by scintillation.

[4] = system: primary cultures of rat motor neuron embryonic cells; experiment: Neuroprotective effect, apoptosis induced by suppression of BDNF; assay type: cell-based; settings: 1 μM; apoptosis induced by BDNF deprivation
Description: This test was performed according to the protocol described by Estevez A. G. et al. (J. Neurosci. 1998, 18(3), 923-931). Briefly, when primary cultures of rat motor neuron embryonic cells are deprived of “brain-derived neurotrophic factor” (BDNF), an induction of neuronal “nitric oxide synthase” (NOS) was observed, resulting in the gradual death of the neurons by apoptosis: between 18 and 24 hours after making the biological preparation, more than 60% of the neurons die. In this model of induced apoptosis, the compound described in Example 1 (S-tofisopam and analogues) protects the neurons by more than 50% at a concentration of 1 μM.

[5] = system: primary neuron cultures (foetal rat cerebral cortex); experiment: Stimulation of neurotrophic factors: primary neuron cultures observed with and without compound; assay type: cell-based
Description: The neurons are cultured in neurobasal medium using foetal rat cerebral cortex according to the procedure described in Example 1 and are photographed without staining 17 days after culturing. Culture A is a control culture without compound. […] Compounds according to the invention were evaluated for their neurotrophic properties. The idea is thus to observe the behaviour of a neuron cell culture in the absence and presence of such molecules. The molecule used in this example is S-tofisopam. The adult animals are coupled and the female rats are separated out the next day. After 16 days, a caesarean section is performed on the gestating female rats and the foetuses are placed in a Petri dish 100 mm in diameter. They are transferred to a laminar flow fume cupboard, in sterile medium. The foetuses are individually isolated and are dissected under a binocular magnifying glass in sterile medium. The cerebral cortex is isolated and placed in a tube containing antibiotic-free neurobasal medium. The tissue is dissociated by suction-ejection, into individual cells in a volume of 2 ml. The cell suspension is then delicately deposited on 2-ml of inactivated foetal calf serum. The tube is centrifuged at low gravity (800 g) for 5 minutes at room temperature. The cell pellet is recovered and the cells are resuspended in complete neurobasal medium. The cells are counted using a Mallassez haematimeter in the presence of trypan blue to determine the cell viability. Culturing is performed by placing 800 000 cells in Petri dishes 60 mm in diameter containing complete neurobasal medium, preheated and equilibrated in a CO2 incubator. These dishes were lined beforehand with a polylysine coat the day before the manipulation. The incubator temperature is set at 37° C., the CO2 level at 5% and the humidity is saturating. The Petri dishes containing the cells are then placed in the incubator. […] These cultures constitute primary neuron cultures. The neuron cultures as prepared above serve as controls. Five dishes are used in order to have a statistical approach. In the other dishes, the test molecule is added at different concentrations: 0.1 μmol/l, 1 μmol/l and 10 μmol/l. In each case, the manipulation is repeated 5 times. The neurons are examined by inverted phase-contrast microscope (Zeiss Axiovert 135) every day after inoculation. The neurons are photographed at various magnifications using a photography camera and are compared between series.

T1 sequence (O00408 whole entry): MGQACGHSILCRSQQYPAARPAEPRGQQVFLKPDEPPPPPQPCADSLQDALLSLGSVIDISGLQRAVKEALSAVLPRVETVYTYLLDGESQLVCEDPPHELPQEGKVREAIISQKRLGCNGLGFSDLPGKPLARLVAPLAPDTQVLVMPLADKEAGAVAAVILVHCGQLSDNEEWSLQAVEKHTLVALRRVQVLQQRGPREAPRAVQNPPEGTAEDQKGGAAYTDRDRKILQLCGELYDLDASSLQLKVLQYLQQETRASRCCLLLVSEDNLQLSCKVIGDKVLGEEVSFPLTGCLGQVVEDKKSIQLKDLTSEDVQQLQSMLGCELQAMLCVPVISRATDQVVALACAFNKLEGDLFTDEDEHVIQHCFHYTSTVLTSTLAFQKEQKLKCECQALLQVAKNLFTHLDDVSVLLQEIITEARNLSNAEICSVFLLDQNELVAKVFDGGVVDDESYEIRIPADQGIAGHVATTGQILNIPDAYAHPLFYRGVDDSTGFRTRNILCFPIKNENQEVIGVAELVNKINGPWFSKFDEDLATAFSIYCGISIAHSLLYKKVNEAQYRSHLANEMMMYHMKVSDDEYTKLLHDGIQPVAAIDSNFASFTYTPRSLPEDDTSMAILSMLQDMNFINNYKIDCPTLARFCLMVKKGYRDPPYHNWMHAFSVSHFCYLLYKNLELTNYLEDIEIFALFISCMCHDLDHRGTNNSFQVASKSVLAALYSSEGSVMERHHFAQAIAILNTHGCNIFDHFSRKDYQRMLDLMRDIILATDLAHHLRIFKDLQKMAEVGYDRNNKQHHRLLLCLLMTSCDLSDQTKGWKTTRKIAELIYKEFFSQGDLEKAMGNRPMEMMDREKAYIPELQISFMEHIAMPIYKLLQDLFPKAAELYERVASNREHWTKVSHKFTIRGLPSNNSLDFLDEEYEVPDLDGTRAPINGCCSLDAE

SMILES: CCOc1cc2c(cc1OCC)C(CC)C(C)=NN=C2c1ccc(OC)c(OC)c1 (racemic)
- melting point: 91 to 93 °C

SMILES: CCCCCC[C@@H]([C@@H](C)O)n1cnc2c(N)ncnc21 (racemic) [EHNA, reference compound]
- IC50 [1]: 2100 nM

SMILES: COCc1nc2c([nH]1)c(=O)n(C)c(=O)n2CC(C)C [8-methoxy-IBMX]
- IC50 (PDE1 (bovine)): 2900 nM

SMILES: CCOc1cc2c(cc1OCC)[C@@H](CC)C(C)=NN=C2c1ccc(OC)c(OC)c1 [R-etofisopam, (R) 1-(3,4-dimethoxy-phenyl)-4-methyl-5-ethyl-7,8-diethoxy-5H-2,3-benzodiazepine]
- IC50 [2]: 1 to 100 nM

SMILES: CCOc1cc2c(cc1OCC)[C@H](CC)C(C)=NN=C2c1ccc(OC)c(OC)c1 [S-etofisopam, 5S-(3,4-dimethoxyphenyl)-5-ethyl-4-methyl-7,8-diethoxy-5H-2,3-benzodiazepine]
- effect on the bone quantity and microarchitecture (BV/TV, Tb.N) (trabecular bone): Identity results
- inhibition of the other PDEs, especially PDE3, compared with PDE4 or PDE2 (PDE3 (human)): more weakly
- IC50 ([3]; read-out: IC50 PDE4, substrate [3H]cAMP+cAMP 1 μM, 30 minutes at 30° C.): 20 nM
- IC50 [2]: 1 to 100 nM

SMILES: CC[C@@H]1C(C)=NN=C(c2ccc(OC)c(OC)c2)c2cc(OC)c(OC)cc21 [S-tofisopam, (5S)-1-(3,4-dimethoxyphenyl)-5-ethyl-7,8-dimethoxy-4-methyl-5H-2,3-benzodiazepine]
- IC50 [1]: 500 nM
- markers and cellular activity: effect on bone formation and bone resorption (trabecular bone): uncoupling effect: anabolic on bone formation, inhibitory on bone resorption
- effect on the bone quantity and microarchitecture (BV/TV, Tb.N) (trabecular bone): positive effect
- inhibition of the other PDEs, especially PDE3, compared with PDE4 or PDE2 (PDE3 (human)): more weakly
- inhibition on PDE4 relative to R-tofisopam ([3]; S-tofisopam versus R-tofisopam): ten times higher
- IC50 [2]: 1 to 100 nM
- protection of the neurons [4]: more than 50%
- density of the neurites with added astrocyte culture supernatant ([5]; astrocyte culture supernatant added, compared with control): increasing the density of the neurites
- cell survival: time treated neurons remain alive after application ([5]; control: all neurons disappeared after 15 days): almost four weeks
- neurotrophic and neuroprotective role in neuron culture ([5]; overall conclusion): not only a neurotrophic role but also a neuroprotective role
- growth of the neurites versus control ([5]; primary neuron culture, test concentrations 0.1, 1 and 10 μmol/l (FIG. 1: 50 μM added on day 8)): greater growth of the neurites than in the cells used as control

SMILES: C[C@@H]1C[C@H]2[C@@H]3CCC4=CC(=O)C=C[C@]4(C)[C@@]3(F)[C@@H](O)C[C@]2(C)[C@@]1(O)C(=O)CO [dexamethasone, reference compound]
- IC50 [2]: 4600 nM
